Data as given in US20260297070A1, “CYCLIC [COMPOUND LEFT OUT] WRN INHIBITORS” (Nimbus Wadjet, Inc., priority 2023, published 2026).

These compounds were tested against T1, human Werner helicase (WRN-BV08, Uniprot Q14191, amino acids 517-1235 with L1074F point mutation) (Homo sapiens, UniProt Q14191, L1074F) (assay: WRN (BV08) ADP-Glo Assay). Conditions: 0.15 nM WRN, 5 μM ATP, 0.1 nM DNA duplex, 15 min preincubation, 60 min at 25° C., pH 7.5, 1% DMSO; read-out: ADP-Glo_hWRN_IC50.
T1 construct: Uniprot Q14191, amino acids 517-1235 with L1074F point mutation; TEV-cleavable 8×His (C, cleaved yes); made in house; host or cells: Sf9 insect cells (baculovirus)
T1 sequence (Q14191 with tags, fused parts or gaps L1074F limits assumed): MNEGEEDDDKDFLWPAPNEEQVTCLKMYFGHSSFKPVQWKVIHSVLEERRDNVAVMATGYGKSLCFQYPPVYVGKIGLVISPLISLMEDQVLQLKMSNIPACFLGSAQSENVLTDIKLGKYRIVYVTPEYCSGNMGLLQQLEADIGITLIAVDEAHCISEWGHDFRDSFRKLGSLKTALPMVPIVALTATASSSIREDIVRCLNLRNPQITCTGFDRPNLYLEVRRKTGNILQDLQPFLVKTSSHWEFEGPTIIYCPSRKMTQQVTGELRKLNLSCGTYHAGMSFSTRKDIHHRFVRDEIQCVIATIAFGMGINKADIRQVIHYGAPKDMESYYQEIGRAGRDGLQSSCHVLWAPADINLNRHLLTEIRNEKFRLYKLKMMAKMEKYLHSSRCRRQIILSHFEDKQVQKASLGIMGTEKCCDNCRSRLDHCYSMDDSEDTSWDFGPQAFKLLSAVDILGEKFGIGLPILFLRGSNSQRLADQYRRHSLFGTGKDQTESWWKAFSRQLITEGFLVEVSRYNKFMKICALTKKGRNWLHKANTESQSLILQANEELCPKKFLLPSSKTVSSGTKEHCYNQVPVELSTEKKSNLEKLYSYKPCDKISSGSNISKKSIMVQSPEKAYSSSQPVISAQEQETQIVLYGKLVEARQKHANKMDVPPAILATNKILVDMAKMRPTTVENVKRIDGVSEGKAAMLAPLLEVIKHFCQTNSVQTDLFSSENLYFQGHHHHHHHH
Assay type: biochemical
Outline: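 0.15 nM WRN (aa 517-1235, L1074F, Sf9-expressed, tag cleaved) preincubated 15 min at 25 °C with compound, then 5 μM ATP and 0.1 nM DNA duplex added for 60 min. Buffer: 20 mM Bicine pH 7.5, 1 mM MgCl2, 10 mM KCl, 1 mM TCEP; 1% DMSO. ADP-Glo luminescence; IC50 by 4-parameter fit.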

| SMILES | IC50 [µM] |
| --- | --- |
| O=C(Cc1ccc(CC(F)(F)F)cc1)N(Cc1ccncc1)C1C=CS(=O)(=O)C1 (centres unmarked) [I-263, N-(1,1-dioxo-2,3-dihydro-1lambda6-thiophen-3-yl)-N-[(pyridin-4-yl)methyl]-2-[4-(2,2,2-trifluoroethyl)phenyl]acetamide] | 5 to 10 |
| CC(C)(O)c1cc(CN(C(=O)Cn2cc(-c3ccc(F)c(F)c3)cn2)[C@@H]2C=CS(=O)(=O)C2)ccn1 [I-6, (R)-2-(4-(3,4-difluorophenyl)-1H-pyrazol-1-yl)-N-(1,1-dioxido-2,3-dihydrothiophen-3-yl)-N-((2-(2-hydroxypropan-2-yl)pyridin-4-yl)methyl)acetamide] | < 0.5 |
| COc1cc(CN(C(=O)C(C)c2ccc(S(F)(F)(F)(F)F)cc2)C2C=CS(=O)(=O)C2)ccn1 (centres unmarked) [I-126, N-(1,1-dioxo-2,3-dihydro-1lambda6-thiophen-3-yl)-N-[(2-methoxypyridin-4-yl)methyl]-2-[4-(pentafluoro-lambda6-sulfanyl)phenyl]propanamide] | 0.5 to 5 |
| CC(C)c1ccc(CC(=O)N(Cc2ccncc2)C2C=CS(=O)(=O)C2)cc1 (centres unmarked) [I-197, N-(1,1-dioxo-2,3-dihydro-1lambda6-thiophen-3-yl)-2-[4-(propan-2-yl)phenyl]-N-[(pyridin-4-yl)methyl]acetamide] | 0.5 to 5 |
| CN(C)C(=O)C(C(=O)N(Cc1nc(C2CC2)cs1)C1C=CS(=O)(=O)C1)c1ccc(-c2ccc(F)cc2)cc1F (centres unmarked) [I-23, N′-[(4-cyclopropyl-1,3-thiazol-2-yl)methyl]-2-{3,4′-difluoro-[1,1′-biphenyl]-4-yl}-N′-(1,1-dioxo-2,3-dihydro-1lambda6-thiophen-3-yl)-N,N-dimethylpropanediamide] | < 0.5 |
| O=C(Cn1cc2ccc(C(F)(F)F)cc2n1)N(Cc1ccncc1)C1C=CS(=O)(=O)C1 (centres unmarked) [I-183, N-(1,1-dioxo-2,3-dihydro-1lambda6-thiophen-3-yl)-N-[(pyridin-4-yl)methyl]-2-[6-(trifluoromethyl)-2H-indazol-2-yl]acetamide] | 0.5 to 5 |
| O=C(CC1CCC(c2ccccc2)CC1)N(Cc1ccncc1)C1C=CS(=O)(=O)C1 (centres unmarked) [I-416, N-(1,1-dioxo-2,3-dihydro-1lambda6-thiophen-3-yl)-2-(4-phenylcyclohexyl)-N-[(pyridin-4-yl)methyl]acetamide] | > 50 |
| Cc1cccn1-c1ccc(CC(=O)N(Cc2ccnnc2)C2C=CS(=O)(=O)C2)c(F)c1 (centres unmarked) [I-150, N-(1,1-dioxo-2,3-dihydro-1lambda6-thiophen-3-yl)-2-[2-fluoro-4-(2-methyl-1H-pyrrol-1-yl)phenyl]-N-[(pyridazin-4-yl)methyl]acetamide] | 0.5 to 5 |
| COc1cc(CN(C(=O)Cc2ccc(-n3ccccc3=O)cc2F)C2C=CS(=O)(=O)C2)ccn1 (centres unmarked) [I-381, N-(1,1-dioxo-2,3-dihydro-1lambda6-thiophen-3-yl)-2-[2-fluoro-4-(2-oxo-1,2-dihydropyridin-1-yl)phenyl]-N-[(2-methoxypyridin-4-yl)methyl]acetamide] | > 50 |
| O=C(Cc1ccc(-c2cccs2)cc1)N(Cc1ccncc1)C1C=CS(=O)(=O)C1 (centres unmarked) [I-338, N-(1,1-dioxo-2,3-dihydro-1lambda6-thiophen-3-yl)-N-[(pyridin-4-yl)methyl]-2-[4-(thiophen-2-yl)phenyl]acetamide] | 10 to 50 |
| COc1cc(CN(C(=O)Cc2ncc(-c3ccc(F)c(F)c3)cn2)C2C=CS(=O)(=O)C2)ccn1 (centres unmarked) [I-198, 2-[5-(3,4-difluorophenyl)pyrimidin-2-yl]-N-(1,1-dioxo-2,3-dihydro-1lambda6-thiophen-3-yl)-N-[(2-methoxypyridin-4-yl)methyl]acetamide] | 0.5 to 5 |
| COc1cc(CN(C(=O)Cc2ccc(-c3ccc(F)cc3)cc2F)C2C=CS(=O)(=O)C2)ccn1 (centres unmarked) [I-87, 2-{3,4′-difluoro-[1,1′-biphenyl]-4-yl}-N-(1,1-dioxo-2,3-dihydro-1lambda6-thiophen-3-yl)-N-[(2-methoxypyridin-4-yl)methyl]acetamide] | 0.5 to 5 |
| COc1cc(CN(C(=O)C(OC)c2ccc(-c3ccc(F)cc3)cc2F)C2C=CS(=O)(=O)C2)ccn1 (single isomer, unassigned) [I-33, (2R*)-2-{3,4′-difluoro-[1,1′-biphenyl]-4-yl}-N-[(3R**)-1,1-dioxo-2,3-dihydro-1lambda6-thiophen-3-yl]-2-methoxy-N-[(2-methoxypyridin-4-yl)methyl]acetamide] | < 0.5 |
| COc1cc(CN(C(=O)CCc2ccc(S(F)(F)(F)(F)F)cc2)C2C=CS(=O)(=O)C2)ccn1 (centres unmarked) [I-343, N-(1,1-dioxo-2,3-dihydro-1lambda6-thiophen-3-yl)-N-[(2-methoxypyridin-4-yl)methyl]-3-[4-(pentafluoro-lambda6-sulfanyl)phenyl]propanamide] | 10 to 50 |
| CN(C)c1cc(CN(C(=O)Cc2ccc(-c3ccc(F)c(F)c3)cc2F)C2C=CS(=O)(=O)C2)ccn1 (centres unmarked) [I-99, N-{[2-(dimethylamino)pyridin-4-yl]methyl}-N-(1,1-dioxo-2,3-dihydro-1lambda6-thiophen-3-yl)-2-{3,3′,4′-trifluoro-[1,1′-biphenyl]-4-yl}acetamide] | 0.5 to 5 |
| Cc1cccn1-c1ccc(CC(=O)N(Cc2nc(C3CC3)cs2)C2C=CS(=O)(=O)C2)c(F)c1 (centres unmarked) [I-60, N-[(4-cyclopropyl-1,3-thiazol-2-yl)methyl]-N-(1,1-dioxo-2,3-dihydro-1lambda6-thiophen-3-yl)-2-[2-fluoro-4-(2-methyl-1H-pyrrol-1-yl)phenyl]acetamide] | < 0.5 |

The remaining lines, values ahead:

| IC50 [µM] | SMILES |
| --- | --- |
| 10 to 50 | COC(C(=O)N(Cc1ccnc(C(C)(C)O)c1)C1C=CS(=O)(=O)C1)c1ccc(-c2ccc(F)c(F)c2)cc1F (single isomer, unassigned) [I-578, (2R*)-N-[(3R**)-1,1-dioxo-2,3-dihydro-1lambda6-thiophen-3-yl]-N-{[2-(2-hydroxypropan-2-yl)pyridin-4-yl]methyl}-2-methoxy-2-{3,3′,4′-trifluoro-[1,1′-biphenyl]-4-yl}acetamide] |
| > 50 | CCC(C(=O)N(Cc1ccncc1)C1C=CS(=O)(=O)C1)c1ccc(-n2cccc2)cc1 (centres unmarked) [I-484, N-(1,1-dioxo-2,3-dihydro-1lambda6-thiophen-3-yl)-N-[(pyridin-4-yl)methyl]-2-[4-(1H-pyrrol-1-yl)phenyl]butanamide] |
| > 50 | O=C(CC1COc2ccccc2C1)N(Cc1ccncc1)C1C=CS(=O)(=O)C1 (centres unmarked) [I-613, 2-(3,4-dihydro-2H-1-benzopyran-3-yl)-N-(1,1-dioxo-2,3-dihydro-1lambda6-thiophen-3-yl)-N-[(pyridin-4-yl)methyl]acetamide] |
| < 0.5 | CC(C)(O)c1cc(CN(C(=O)C(OCC(F)(F)F)c2ccc(-c3ccc(F)c(F)c3)cc2F)[C@@H]2C=CS(=O)(=O)C2)ccn1 (single isomer, unassigned) [I-805] |
| > 50 | O=C(Cc1ccc(-n2cccn2)cc1)N(Cc1ccncc1)C1C=CS(=O)(=O)C1 (centres unmarked) [I-419, N-(1,1-dioxo-2,3-dihydro-1lambda6-thiophen-3-yl)-2-[4-(1H-pyrazol-1-yl)phenyl]-N-[(pyridin-4-yl)methyl]acetamide] |
| < 0.5 | CC(C)(O)c1cc(CN(C(=O)Cn2ncc(-c3ccc(F)c(F)c3)cc2=O)C2C=CS(=O)(=O)C2)ccn1 (single isomer, unassigned) [I-767] |
| > 50 | O=C([C@H]1CC[C@@H](c2ccccc2)O1)N(Cc1ccncc1)C1C=CS(=O)(=O)C1 (mixture of isomers) [I-652, rac-(2R,5S)-N-(1,1-dioxo-2,3-dihydro-1lambda6-thiophen-3-yl)-5-phenyl-N-[(pyridin-4-yl)methyl]oxolane-2-carboxamide] |
| 5 to 10 | CC(C)(O)c1csc(CN(C(=O)Cc2ccc(S(F)(F)(F)(F)F)cc2)C2C=CS(=O)(=O)C2)n1 (single isomer, unassigned) [I-708] |
| > 50 | COc1cc(CN(C(=O)C(OC2CS(=O)(=O)C2)c2ccc(-c3ccc(F)c(F)c3)cc2F)[C@@H]2C=CS(=O)(=O)C2)ccn1 (single isomer, unassigned) [I-834, (2R*)-2-[(1,1-dioxo-1lambda6-thietan-3-yl)oxy]-N-[(3R)-1,1-dioxo-2,3-dihydro-1lambda6-thiophen-3-yl]-N-[(2-methoxypyridin-4-yl)methyl]-2-{3,3′,4′-trifluoro-[1,1′-biphenyl]-4-yl}acetamide] |
| 10 to 50 | COc1cc(CN(C(=O)C(OC2CS(=O)(=O)C2)c2ccc(-c3ccc(F)c(F)c3)cc2F)[C@@H]2C=CS(=O)(=O)C2)ccn1 (stereo partly drawn) [I-833, 2-[(1,1-dioxo-1lambda6-thietan-3-yl)oxy]-N-[(3R)-1,1-dioxo-2,3-dihydro-1lambda6-thiophen-3-yl]-N-[(2-methoxypyridin-4-yl)methyl]-2-{3,3′,4′-trifluoro-[1,1′-biphenyl]-4-yl}acetamide] |
| 0.5 to 5 | COc1ccc(CN(C(=O)Cn2cc(-c3ccc(F)c(F)c3)cn2)C2C=CS(=O)(=O)C2)cn1 (centres unmarked) [I-762, 2-[4-(3,4-difluorophenyl)-1H-pyrazol-1-yl]-N-(1,1-dioxo-2,3-dihydro-1lambda6-thiophen-3-yl)-N-[(6-methoxypyridin-3-yl)methyl]acetamide] |
| > 50 | COc1ccc2c(c1)CC(C(=O)N(Cc1ccncc1)C1C=CS(=O)(=O)C1)CO2 (centres unmarked) [I-756, N-(1,1-dioxo-2,3-dihydro-1lambda6-thiophen-3-yl)-6-methoxy-N-[(pyridin-4-yl)methyl]-3,4-dihydro-2H-1-benzopyran-3-carboxamide] |
| > 50 | O=C([C@@H]1[C@H]2C[C@]1(c1cccc(F)c1)CO2)N(Cc1ccncc1)C1C=CS(=O)(=O)C1 (mixture of isomers) [I-715, rac-(1R,4S,5S)-N-(1,1-dioxo-2,3-dihydro-1lambda6-thiophen-3-yl)-4-(3-fluorophenyl)-N-[(pyridin-4-yl)methyl]-2-oxabicyclo[2.1.1]hexane-5-carboxamide] |
